US20250034147A1, “MDM2 DEGRADERS AND USES THEREOF” (Kymera Therapeutics, Inc., priority 2021, published 2025)

Experiments:
HiBiT-tagged MDM2 = biological target: T1, HiBiT-tagged MDM2 (Homo sapiens, UniProt Q00987); test: MDM2 HiBit HEK293T degradation; format: cell-based; settings: HEK293T cells stably expressing C-terminally HiBiT-tagged MDM2; 4 h; read-out: MDM2 HiBit HEK293T degradation 4 h: Average external-Abs DC50
T1 construct: expressed in transfected cells
How it was run: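 Degradation was measured in HEK293T cells stably expressing C-terminally HiBiT-tagged MDM2, a pool selected with 1 microgram/ml puromycin. A MDM2 tool degrader and HaloPROTAC3 served as positive controls. Potency is reported as DC50 in letter bins.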

RS411 cells = test: Cell Viability CTG Assay; format: cell-based; settings: Homo sapiens, RS4-11, CellTiter Glo (CTG) cell viability, read-out: Average external-IC50
Procedure: Compounds or DMSO 60 nL were stamped to the cell plate as the platemap. RS411 cells were centrifuged at 800 rpm for 5 min, suspended with culture medium, and counted with Countess (Invitrogen). The cell density was adjusted to the recommend information. 30 μL of cell solution (1000 cells/well) was added to the assay plate as the platemap and 30 μL of media was added to column 2 and column 23 as the platemap. The plate was spun down briefly. The final concentration of the compounds started at 10 μM (3 fold dilution and 11 doses) and final DMSO concentration was 0.2%. The plate was spun down briefly and incubated at 37° C., 5% CO2 for 1 day. […] 30 μL CellTiter Glo reagent was added to each well and the plate was centrifuged at 1000 rpm for 30 sec. The plate was shaken for 1 min and centrifuged at 1000 rpm for 30 sec. The plate was incubated at RT for 10 min to stabilize the luminescent signal and the luminescence was read by EnVision.
The letter codes for IC50 indicate the concentration of compound required to affect 50% of cells: A (<0.005 μM), B (0.005-0.05 μM), C (0.05-0.5 μM), and D (>0.5 μM).

T1 sequence (Q00987 whole entry): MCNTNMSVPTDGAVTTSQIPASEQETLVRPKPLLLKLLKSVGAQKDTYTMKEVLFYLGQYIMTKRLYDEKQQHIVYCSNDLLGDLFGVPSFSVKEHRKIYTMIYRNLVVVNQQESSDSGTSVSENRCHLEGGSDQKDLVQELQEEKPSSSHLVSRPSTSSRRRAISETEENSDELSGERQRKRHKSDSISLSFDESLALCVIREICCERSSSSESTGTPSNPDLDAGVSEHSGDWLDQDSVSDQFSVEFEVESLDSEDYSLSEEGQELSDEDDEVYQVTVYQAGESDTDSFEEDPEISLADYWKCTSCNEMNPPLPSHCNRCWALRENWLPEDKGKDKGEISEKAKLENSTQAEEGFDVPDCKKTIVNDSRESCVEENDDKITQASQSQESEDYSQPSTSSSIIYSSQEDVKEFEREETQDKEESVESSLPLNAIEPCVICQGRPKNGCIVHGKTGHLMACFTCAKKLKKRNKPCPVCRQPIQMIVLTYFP

Structure (SMILES) | DC50 (HiBiT-tagged MDM2) [nM] | IC50 (RS411 cells) [nM]
Cn1c(=O)n(C2CCC(=O)NC2=O)c2ccc(CN3CCC(OC4CN(C(=O)[C@H]5CC[C@H](NC(=O)[C@@H]6NC7(CCCCC7)[C@@]7(C(=O)Nc8cc(Cl)ccc87)[C@H]6c6cccc(Cl)c6F)CC5)C4)CC3)cc21 (some centres unmarked) [I-23] | < 10 | < 5
Cn1c(=O)n(C2CCC(=O)NC2=O)c2ccc(C3CCN(C[C@H]4CC[C@H](NC(=O)[C@@H]5NC6(CCC(C)(C)CC6)[C@@]6(C(=O)Nc7cc(Cl)ccc76)[C@H]5c5ccnc(Cl)c5F)CC4)CC3)cc21 (some centres unmarked) [I-25] | < 10 | < 5
CC1(C)CCC2(CC1)NC(C(=O)N[C@H]1CC[C@H](CN3CCN(CCCc4ccn5c(N6CCC(=O)NC6=O)cnc5c4)CC3)CC1)[C@H](c1ccnc(Cl)c1F)[C@]21C(=O)Nc2cc(Cl)ccc21 (some centres unmarked) [I-26] | < 10 | < 5
CN1[C@@H](C(=O)Nc2ccc(CN3CCC(c4ccc5c(c4)n(C)c(=O)n5C4CCC(=O)NC4=O)CC3)cc2)[C@H](c2cccc(Cl)c2F)[C@]2(C(=O)Nc3cc(Cl)ccc32)C12CCCCC2 (some centres unmarked) [I-28] | < 10 | < 5
Cn1c(=O)n(C2CCC(=O)NC2=O)c2ccc(C3CCN(C(=O)CCCN4CCC(NC(=O)[C@@H]5NC6(CCCCC6)[C@@]6(C(=O)Nc7cc(Cl)ccc76)[C@H]5c5cccc(Cl)c5F)CC4)CC3)cc21 (some centres unmarked) [I-29] | 10 to 100 | 5 to 50
Cn1c(=O)n(C2CCC(=O)NC2=O)c2ccc(CCN3CCN(C(=O)CN4CCC(NC(=O)[C@@H]5NC6(CCC(C)(C)CC6)[C@@]6(C(=O)Nc7cc(Cl)ccc76)[C@H]5c5ccnc(Cl)c5F)CC4)CC3)cc21 (stereo partly drawn) [I-32, (3′R,4′S,5′R)-6″-chloro-4′-(2-chloro-3-fluoropyridin-4-yl)-N-(1-(2-(4-(2-(1-(2,6-dioxopiperidin-3-yl)-3-methyl-2-oxo-2,3-dihydro-1H-benzo[d]imidazol-5-yl)ethyl)piperazin-1-yl)-2-oxoethyl)piperidin-4-yl)-4,4-dimethyl-2″-oxodispiro[cyclohexane-1,2′-pyrrolidine-3′,3″-indoline]-5′-carboxamide] | < 10 | < 5
O=C1CCC(n2c(=O)n(CP(=O)(O)O)c3cc(C4CCN(C(=O)[C@H]5CC[C@H](NC(=O)[C@@H]6NC7(CCCCC7)[C@@]7(C(=O)Nc8cc(Cl)ccc87)[C@H]6c6cccc(Cl)c6F)CC5)CC4)ccc32)C(=O)N1 (some centres unmarked) [I-35] | 100 to 1000 | 50 to 500
Cn1c(=O)n(C2CCC(=O)NC2=O)c2ccc(C3CCN(C(=O)[C@@H]4CC[C@@H](NC(=O)[C@@H]5NC6(CCCCC6)[C@@]6(C(=O)Nc7cc(Cl)ccc76)[C@H]5c5cccc(Cl)c5F)CO4)CC3)cc21 (some centres unmarked) [I-37] | < 10 | < 5
Cn1c(=O)n(C2CCC(=O)NC2=O)c2ccc(CCCC3(C(=O)O)CCN(C[C@H]4CC[C@H](NC(=O)[C@@H]5NC6(CCCCC6)[C@@]6(C(=O)Nc7cc(Cl)ccc76)[C@H]5c5cccc(Cl)c5F)CC4)CC3)cc21 (some centres unmarked) [I-38] | < 10 | 5 to 50
Cn1c(=O)n(C2CCC(=O)NC2=O)c2ccc(C3CCN(CCCN4CCC(NC(=O)[C@@H]5NC6(CCCCC6)[C@@]6(C(=O)Nc7cc(Cl)ccc76)[C@H]5c5cccc(Cl)c5F)CC4)CC3)cc21 (some centres unmarked) [I-39] | < 10 | 5 to 50
O=C1CCC(n2c(=O)n(CCP(=O)(O)O)c3cc(C4CCN(C(=O)[C@H]5CC[C@H](NC(=O)[C@@H]6NC7(CCCCC7)[C@@]7(C(=O)Nc8cc(Cl)ccc87)[C@H]6c6cccc(Cl)c6F)CC5)CC4)ccc32)C(=O)N1 (some centres unmarked) [I-40] | 10 to 100 | 50 to 500
Cn1c(=O)n(C2CCC(=O)NC2=O)c2ccc(CCN3CCN(C(=O)[C@@H]4CC[C@@H](NC(=O)[C@@H]5NC6(CCCCC6)[C@@]6(C(=O)Nc7cc(Cl)ccc76)[C@H]5c5cccc(Cl)c5F)CO4)CC3)cc21 (some centres unmarked) [I-41] | < 10 | < 5
CN1[C@@H](C(=O)N[C@H]2CC[C@H](CN3CCC4(CC3)CN(CCc3ccc5c(c3)n(C)c(=O)n5C3CCC(=O)NC3=O)C4)CC2)[C@H](c2ccnc(Cl)c2F)[C@]2(C(=O)Nc3cc(Cl)ccc32)C12CCC(C)(C)CC2 (some centres unmarked) [I-43] | < 10 | < 5
Cn1c(=O)n(C2CCC(=O)NC2=O)c2ccc(C#CC3CCN(C[C@H]4CC[C@H](NC(=O)[C@@H]5NC6(CCCCC6)[C@@]6(C(=O)Nc7cc(Cl)ccc76)[C@H]5c5cccc(Cl)c5F)CC4)C(=O)C3)cc21 (some centres unmarked) [I-46] | < 10 | 5 to 50
Cn1c(=O)n(C2CCC(=O)NC2=O)c2ccc(CN3CC(OC4CCN(C[C@H]5CC[C@H](NC(=O)[C@@H]6NC7(CCCCC7)[C@@]7(C(=O)Nc8cc(Cl)ccc87)[C@H]6c6cccc(Cl)c6F)CC5)CC4)C3)cc21 (stereo partly drawn) [I-47, (3′R,4′S,5′S)-6″-chloro-4′-(3-chloro-2-fluorophenyl)-N-((1r,4S)-4-((4-((1-((1-(2,6-dioxopiperidin-3-yl)-3-methyl-2-oxo-2,3-dihydro-1H-benzo[d]imidazol-5-yl)methyl)azetidin-3-yl)oxy)piperidin-1-yl)methyl)cyclohexyl)-2″-oxodispiro[cyclohexane-1,2′-pyrrolidine-3′,3″-indoline]-5′-carboxamide] | < 10 | < 5
Cn1c(=O)n(C2CCC(=O)NC2=O)c2ccc(CN3CCC(OC4CN(C[C@H]5CC[C@H](NC(=O)[C@@H]6NC7(CCCCC7)[C@@]7(C(=O)Nc8cc(Cl)ccc87)[C@H]6c6cccc(Cl)c6F)CC5)C4)CC3)cc21 (some centres unmarked) [I-49] | < 10 | 5 to 50
Cn1c(=O)n(C2CCC(=O)NC2=O)c2ccc(C3CCN(C[C@H]4CC[C@H](NC(=O)[C@@H]5NC6(CCCCC6)[C@@]6(C(=O)Nc7cc(Cl)ccc76)[C@H]5c5cccc(Cl)c5F)CC4)CC3(F)F)cc21 (some centres unmarked) [I-52] | < 10 | < 5

Results, then the compound that gave them:

DC50 (HiBiT-tagged MDM2) [nM] | IC50 (RS411 cells) [nM] | Structure (SMILES)
> 1000 | 50 to 500 | COc1cc2c(cc1OC(C)C)[C@H](c1ccc(Cl)cc1)N(c1ccc(N(C)CCC3CCN(CCCCC#Cc4cccn5c(N6CCC(=O)NC6=O)cnc45)CC3)cc1)C(=O)C2 [I-22]
< 10 | < 5 | Cn1c(=O)n(C2CCC(=O)NC2=O)c2ccc(C3CN(C[C@H]4CC[C@H](NC(=O)[C@@H]5NC6(CCCCC6)[C@@]6(C(=O)Nc7cc(Cl)ccc76)[C@H]5c5cccc(Cl)c5F)CC4)C3)cc21 (some centres unmarked) [I-24]
< 10 | < 5 | Cn1c(=O)n(C2CCC(=O)NC2=O)c2ccc(C3CCN(C(=O)CN4CCC(NC(=O)[C@@H]5NC6(CCCCC6)[C@@]6(C(=O)Nc7cc(Cl)ccc76)[C@H]5c5cccc(Cl)c5F)CC4)CC3)cc21 (some centres unmarked) [I-27]
< 10 | < 5 | Cn1c(=O)n(C2CCC(=O)NC2=O)c2ccc(CCCN3CCN(C(=O)[C@H]4CC[C@H](NC(=O)[C@@H]5NC6(CCCCC6)[C@@]6(C(=O)Nc7cc(Cl)ccc76)[C@H]5c5cccc(Cl)c5F)CC4)CC3)cc21 (some centres unmarked) [I-30]
< 10 | 50 to 500 | Cn1c(=O)n(C2CCC(=O)NC2=O)c2ccc(C3CN(Cc4ccc(NC(=O)[C@@H]5NC6(CCCCC6)[C@@]6(C(=O)Nc7cc(Cl)ccc76)[C@H]5c5cccc(Cl)c5F)cc4)C3)cc21 (some centres unmarked) [I-34]
< 10 | < 5 | O=C1CCN(c2cnc3cc(C4CCN(C(=O)[C@H]5CC[C@H](NC(=O)[C@@H]6NC7(CCCCC7)[C@@]7(C(=O)Nc8cc(Cl)ccc87)[C@H]6c6cccc(Cl)c6F)CC5)CC4)ccn23)C(=O)N1 [I-42]
10 to 100 | < 5 | Cn1c(=O)n(C2CCC(=O)NC2=O)c2ccc(C#CCC3(C(=O)O)CCN(C(=O)[C@H]4CC[C@H](NC(=O)[C@@H]5NC6(CCCCC6)[C@@]6(C(=O)Nc7cc(Cl)ccc76)[C@H]5c5cccc(Cl)c5F)CC4)CC3)cc21 (some centres unmarked) [I-44]
< 10 | 5 to 50 | O=C1CCN(c2cnc3c(C4CCN(C(=O)[C@H]5CC[C@H](NC(=O)[C@@H]6NC7(CCCCC7)[C@@]7(C(=O)Nc8cc(Cl)ccc87)[C@H]6c6cccc(Cl)c6F)CC5)CC4)cccn23)C(=O)N1 [I-45]
> 1000 | > 500 | COc1cc2c(cc1OC(C)C)[C@H](c1ccc(Cl)cc1)N(c1ccc(N(C)CC(=O)N3CCN(CCCCCCc4ccc5c(c4)n(C)c(=O)n5C4CCC(=O)NC4=O)CC3)cc1)C(=O)C2 (some centres unmarked) [I-48]
< 10 | 5 to 50 | CC1(C)CCC2(CC1)NC(C(=O)NC1CCC(CN3CCN(CC#Cc4ccn5c(N6CCC(=O)NC6=O)cnc5c4)CC3)CC1)[C@H](c1ccnc(Cl)c1F)[C@]21C(=O)Nc2cc(Cl)ccc21 (some centres unmarked) [I-50]
10 to 100 | 50 to 500 | COc1cc2c(cc1OC(C)C)[C@H](c1ccc(Cl)cc1)N(c1ccc(N(C)CCC3CCN(CCCCC#Cc4ccn5c(N6CCC(=O)NC6=O)cnc5c4)CC3)cc1)C(=O)C2 [I-51]
